Legend:
H9c2 = assay: protection of cardiomyocytes from stress damage, SAR follow-up, cell-based, panel, H9c2 and HL-1, H2O2, 2-deoxyglucose, ATP luminescence (AID 651642)
HL-1 = assay: as above
[1] = H9c2/HL-1 cardiomyocyte 2-deoxyglucose damage, mean of runs, with 2-deoxyglucose, mean IC50 across panel
[2] = H9c2/HL-1 cardiomyocyte 2-deoxyglucose damage, run 1, with 2-deoxyglucose
[3] = H9c2/HL-1 cardiomyocyte 2-deoxyglucose damage, run 2, with 2-deoxyglucose
[4] = H9c2/HL-1 cardiomyocyte 2-deoxyglucose damage, run 3, with 2-deoxyglucose
[5] = H9c2/HL-1 cardiomyocyte 2-deoxyglucose damage, run 4, with 2-deoxyglucose
[6] = H9c2/HL-1 cardiomyocyte H2O2 oxidative damage, mean of runs, with H2O2, mean IC50 across panel
[7] = H9c2/HL-1 cardiomyocyte H2O2 oxidative damage, run 1, with H2O2
[8] = H9c2/HL-1 cardiomyocyte H2O2 oxidative damage, run 2, with H2O2
[9] = H9c2/HL-1 cardiomyocyte H2O2 oxidative damage, run 3, with H2O2
[10] = H9c2/HL-1 cardiomyocyte H2O2 oxidative damage, run 4, with H2O2

Compound | IC50 (H9c2; [1]) | IC50 (H9c2; [2]) | IC50 (H9c2; [3]) | IC50 (H9c2; [4]) | IC50 (H9c2; [5]) | IC50 (H9c2; [6]) | IC50 (H9c2; [7]) | IC50 (H9c2; [8]) | IC50 (H9c2; [9]) | IC50 (H9c2; [10]) | IC50 (HL-1; [1]) | IC50 (HL-1; [2]) | IC50 (HL-1; [3]) | IC50 (HL-1; [4]) | IC50 (HL-1; [5]) | IC50 (HL-1; [6]) | IC50 (HL-1; [7]) | IC50 (HL-1; [8]) | IC50 (HL-1; [9]) | IC50 (HL-1; [10])
COc1cc(-c2cc(C(=O)Nc3cccc(-c4nn[nH]n4)c3)c3ccccc3n2)cc(OC)c1OC | > 79 µM | > 79 µM | > 79 µM | > 79 µM | > 79 µM | 20.9 µM | 24.2 µM | 24.3 µM | 16.4 µM | 18.6 µM | 47.5 µM | 27.6 µM | 57.3 µM | 48.6 µM | 56.7 µM | 25 µM | 26.1 µM | 28.8 µM | 15.2 µM | 29.8 µM
COc1cc(-c2cc(C(=O)NCC(=O)O)c3ccccc3n2)cc(OC)c1OC | > 79 µM | > 79 µM | > 79 µM | > 79 µM | > 79 µM |  | > 79 µM | > 79 µM | > 79 µM | > 79 µM | > 79 µM | > 79 µM | > 79 µM | > 79 µM | > 79 µM | > 79 µM | > 79 µM | > 79 µM | > 79 µM | > 79 µM
COc1cc(-c2cc(C(=O)NCC(=O)Nc3cccc(C(C)=O)c3)c3ccccc3n2)cc(OC)c1OC | 8.19 µM | 9.43 µM | 9.75 µM | 6.11 µM | 7.46 µM | 1.61 µM | 1.67 µM | 2.65 µM | 0.99 µM | 1.13 µM | 6.18 µM | 2.77 µM | 3.2 µM | 8.97 µM | 9.78 µM | 6.32 µM | 4.49 µM | 9.07 µM | 4.55 µM | 7.16 µM
COc1cc(-c2cc(C(=O)Nc3cccc(C(N)=O)c3)c3ccccc3n2)cc(OC)c1OC |  | 31.1 µM | 31.3 µM | > 79 µM | > 79 µM | 2.42 µM | 2.23 µM | 2.4 µM | 2.49 µM | 2.57 µM | 14.2 µM | 7.32 µM | 8.09 µM | 19.2 µM | 22.1 µM | 4.97 µM | 4.52 µM | 5.96 µM | 2.31 µM | 7.08 µM
COc1ccc2c(c1OC)C(=O)N1c3ccccc3C(=O)N(Cc3ccncc3)C21 (configuration not stated) | > 79 µM | > 79 µM | > 79 µM | > 79 µM | > 79 µM |  | > 79 µM | 55.3 µM | > 79 µM | > 79 µM | > 79 µM | > 79 µM | > 79 µM | > 79 µM | > 79 µM |  | > 79 µM | > 79 µM | > 79 µM | > 79 µM
COc1cccc(CNC(=O)CNC(=O)c2cc(-c3cc(OC)c(OC)c(OC)c3)nc3ccccc23)c1 |  | 38.6 µM | 40.8 µM | > 79 µM | > 79 µM | 5.76 µM | 5.74 µM | 7.73 µM | 4.38 µM | 5.17 µM | 15.2 µM | 9.87 µM | 10.8 µM | 17.7 µM | 22.6 µM |  | > 79 µM | 13.1 µM | 6.25 µM | 7.97 µM
COc1ccc2c(c1OC)C(=O)N1c3ccccc3C(=O)N(Cc3ccccc3Br)C21 (configuration not stated) | > 79 µM | > 79 µM | > 79 µM | > 79 µM | > 79 µM |  | > 79 µM | 2.03 µM | > 79 µM | > 79 µM | 13.4 µM | 2.54 µM | 2.85 µM | 13.9 µM | 34.4 µM | > 79 µM | > 79 µM | > 79 µM | > 79 µM | > 79 µM
COc1ccc2c(c1OC)C(=O)N1c3ccccc3C(=O)N(Cc3ccccc3C)C21 (configuration not stated) | 16.3 µM | 17 µM | 18.1 µM | 13.8 µM | 16.2 µM |  | 1.32 µM | 2.6 µM | > 79 µM | > 79 µM | 3.01 µM | 1.65 µM | 1.91 µM | 3.79 µM | 4.71 µM | > 79 µM | > 79 µM | > 79 µM | > 79 µM | > 79 µM
COc1cc(-c2cc(C(=O)NCC(=O)Nc3ccc(C(C)=O)cc3)c3cc(C)ccc3n2)cc(OC)c1OC | 5.83 µM | 6.75 µM | 8.1 µM | 3.5 µM | 4.96 µM | 1.67 µM | 2.04 µM | 2.05 µM | 1.09 µM | 1.49 µM | 4.22 µM | 2.65 µM | 2.65 µM | 5.75 µM | 5.85 µM | 3.93 µM | 3.02 µM | 3.88 µM | 3.17 µM | 5.63 µM
CCOC(=O)c1cccc(NC(=O)CNC(=O)c2cc(-c3cc(OC)c(OC)c(OC)c3)nc3ccc(Br)cc23)c1 | 4.52 µM | 4.66 µM | 6.47 µM | 3.26 µM | 3.71 µM | 1.34 µM | 1.44 µM | 1.74 µM | 0.953 µM | 1.24 µM | 1.87 µM | 1.25 µM | 1.42 µM | 1.96 µM | 2.86 µM | 2.04 µM | 2.32 µM | 2.54 µM | 1.26 µM | 2.05 µM
CCOC(=O)c1cccc(NC(=O)CNC(=O)c2cc(-c3cc(OC)c(OC)c(OC)c3)nc3c(Cl)cccc23)c1 | > 79 µM | > 79 µM | > 79 µM | > 79 µM | > 79 µM |  | 5.52 µM | 8.8 µM | > 79 µM | 3.36 µM |  | 3.56 µM | 5.79 µM | > 79 µM | > 79 µM |  | > 79 µM | > 79 µM | 4.99 µM | 15.4 µM
CCNC(=O)c1cccc(NC(=O)c2cc(-c3cc(OC)c(OC)c(OC)c3)nc3ccccc23)c1 | 22.2 µM | 21.3 µM | 22.2 µM | 22.4 µM | 22.8 µM | 4 µM | 4.85 µM | 4.86 µM | 2.88 µM | 3.41 µM | 9.33 µM | 5.11 µM | 6.24 µM | 13 µM | 13 µM | 6.69 µM | 3.81 µM | 11.5 µM | 3.71 µM | 7.74 µM
CCOC(=O)c1cccc(NC(=O)c2cc(-c3cc(OC)c(OC)c(OC)c3)nc3ccc(F)cc23)c1 | > 79 µM | > 79 µM | > 79 µM | > 79 µM | > 79 µM |  | 9 µM | 10.7 µM | > 79 µM | 3.82 µM |  | 3.32 µM | 4.09 µM | > 79 µM | > 79 µM | 4.11 µM | 2.77 µM | 7.9 µM | 2.4 µM | 3.37 µM
